Converted amounts (≈) assume the structure as drawn. “And” between values parts separate entries of the source, which are not always exact repeats. Equal values may be shown once. Read-outs that look alike come from different tables or passages of the source.
What was measured:
E. coli PhoR (PhoR^E) [1] = target: T1, E. coli PhoR (PhoR^E) (Escherichia coli, UniProt P08400); assay: In vitro autophosphorylation kinase assay with γ-32P-ATP, PhoR^E; type: biochemical; settings: for IC50: autophosphorylation, one time point (30 sec), 10% DMSO, read-out: IC50 PhoR^E
T1 construct: The catalytic portion (DHp and CA domain) of E. coli PhoR (PhoR^E); made in house; host or cells: E. coli RIL
T1 sequence (P08400 210-425): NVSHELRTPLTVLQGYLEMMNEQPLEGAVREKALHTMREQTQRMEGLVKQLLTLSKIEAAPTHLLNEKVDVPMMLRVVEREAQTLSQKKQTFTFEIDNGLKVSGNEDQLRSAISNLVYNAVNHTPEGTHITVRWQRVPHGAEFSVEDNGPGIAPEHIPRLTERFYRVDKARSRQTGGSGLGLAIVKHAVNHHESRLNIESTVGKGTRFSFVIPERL
Method in brief: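 Autophosphorylation, initiated with γ-32P-ATP (0.1 μCi/μl; 0.03–0.06 μM ATP final), quenched with SDS/EDTA sample buffer, resolved by SDS-PAGE and quantified by phosphor-imaging. ≈4 μM kinase, fragments up to 20 mM, pH 8.5 Tris buffer with Mg2+; DMSO-matched ligand-free controls.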

Staphylococcus aureus = assay: Antibacterial susceptibility testing (MIC/MBC), S. aureus; type: cell-based; settings: for MIC / MBC: Staphylococcus aureus; for MBC: read-out: MBC S. aureus DSM 20231
Method: (§1) Minimal inhibitory concentrations (MICs) were determined following a standard double-dilution method. […] For S. pneumoniae MICs were determined by adapting the standard double-dilution method to anaerobic conditions and of this microorganism (use of Todd Hewitt Yeast extract with 200 U/mL of catalase and continuous monitoring of growth).

[2] = tested on: Staphylococcus epidermidis; assay: Antibacterial susceptibility testing (MIC/MBC), S. epidermidis; type: cell-based; settings: for MBC / MIC: Staphylococcus epidermidis
Method: as §1

Streptococcus suis = assay: Antibacterial susceptibility testing (MIC), S. suis; type: cell-based; settings: Streptococcus suis, read-out: MIC Streptococcus suis 3881/S10, strain 3881/S10
Method in brief: (§2)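 MICs were determined by standard double (two-fold) dilution and read as the lowest compound concentration with no visible growth. MBC was the lowest concentration giving no colonies on plating, or no growth on regrowth in fresh MH medium. For S. pneumoniae the method was adapted to anaerobic conditions in Todd Hewitt yeast extract with 200 U/mL catalase, with growth monitored continuously.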

Streptococcus pneumoniae = assay: Antibacterial susceptibility testing (MIC), S. pneumoniae; type: cell-based; settings: strain 49619
Method: Bacterial strains used in this study for antibacterial susceptibility testing (Table S5) were propagated using standard microbiological procedures. Minimal inhibitory concentrations (MICs) were determined following a standard double-dilution method. MICs were recorded as the lowest concentration of the compound where no visible growth was observed. After plating the dilutions around the MIC or growing them in fresh MH media, minimal bactericidal concentration (MBC) was recorded as the lowest concentration of the compound at which no colonies were formed or no growth was observed, respectively. For S. pneumoniae MICs were determined by adapting the standard double-dilution method to anaerobic conditions and of this microorganism (use of Todd Hewitt Yeast extract with 200 U/mL of catalase and continuous monitoring of growth).

Acinetobacter baumannii = assay: Antibacterial susceptibility testing (MIC), A. baumannii; type: cell-based
Method in brief: as §2

[3] = tested on: Stenotrophomonas maltophilia; assay: Antibacterial susceptibility testing (MIC), S. maltophilia; type: cell-based
Method in brief: as §2

Klebsiella pneumoniae = assay: Antibacterial susceptibility testing (MIC), K. pneumoniae; type: cell-based; settings: for MIC: Klebsiella pneumoniae, ATCC700603, strain ATCC 700603
Method in brief: as §2

Pseudomonas aeruginosa = assay: Antibacterial susceptibility testing (MIC), P. aeruginosa; type: cell-based; settings: strain ATCC 27853; for MIC: Pseudomonas aeruginosa, ATCC27853
Method in brief: as §2

Hemolysis assay = type: cell-based; settings: human
Method: Hemolytic activity against human erythrocytes taken from a healthy donor was measured as previously described. The hemolysis experiments were carried out in accordance with the guidelines of the United Arab Emirates University (UAEU) Research Ethics Review Board. All experimental protocols were approved by the Research Ethics Review Board of UAEU and informed consent was obtained from all donors.

E. coli PhoR (PhoR^E) [4] = target: T1, E. coli PhoR (PhoR^E); assay: Aggregation analysis by native-PAGE, PhoR^E; settings: 2 mM (S5 and S6 5 mM), 10% DMSO
Method: (§3) E. coli PhoR and EnvZ, and S. aureus PhoR ([…], final concentration) were prepared in kinase buffer. […] DMSO in the assays was maintained to a final concentration 10% (v/v). After 30 min of incubation at room temperature Native polyacrylamide gel electrophoresis (Native-PAGE) loading buffer was added and samples loaded. Coomassie blue staining was used for protein visualization.

S. aureus PhoR (PhoR^S) = S. aureus PhoR (PhoR^S) (Staphylococcus aureus, UniProt Q2FXN7); assay: Aggregation analysis by native-PAGE, PhoR^S; settings: 2 mM (S5 and S6 5 mM), 10% DMSO
Chain of S. aureus PhoR (PhoR^S) (Q2FXN7 entry or part of it): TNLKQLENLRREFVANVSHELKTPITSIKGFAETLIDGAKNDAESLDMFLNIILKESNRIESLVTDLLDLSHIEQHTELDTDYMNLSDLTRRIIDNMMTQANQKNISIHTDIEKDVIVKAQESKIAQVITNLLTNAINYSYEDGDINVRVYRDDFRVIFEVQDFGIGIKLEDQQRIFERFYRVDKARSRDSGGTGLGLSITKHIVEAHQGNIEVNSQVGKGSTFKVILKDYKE
Method: as §3

[5] = Solubility in kinase buffer; type: physicochemical; settings: kinase buffer in the presence of 10% DMSO
[6] = ATCC reference strain 25293, read-out: MIC S. aureus 25293
[7] = DSM20231, strain DSM 20231, read-out: MIC S. aureus DSM 20231
[8] = MRSA clinical isolate 145/08, read-out: MIC S. aureus 145/08
[9] = MRSA clinical isolate 274/08, read-out: MIC S. aureus 274/08
[10] = MRSA, MRSA clinical isolate T4/6, read-out: MIC S. aureus T4/6
[11] = MRSA, MRSA clinical isolate V4180, read-out: MIC S. aureus V4180
[12] = DSM20044, strain DSM 20044, read-out: MIC S. epidermidis DSM 20044
[13] = clinical isolate T7/3, read-out: MIC S. epidermidis T7/3
[14] = clinical isolate T37/8, read-out: MIC S. epidermidis T37/8
[15] = clinical isolate T6119, read-out: MIC S. epidermidis T6119
[16] = strain RP62A (biofilm producer), read-out: MIC S. epidermidis RP62A
[17] = strain RP62A/1 (non-biofilm producer), read-out: MIC S. epidermidis RP62A/1
[18] = MDR clinical isolate NM8, read-out: MIC A. baumannii NM8
[19] = clinical isolate B32/1, read-out: MIC S. maltophilia B32/1

## CC(C)(C)c1ccc(O)c(CNc2ccccc2)c1 [S1.14, 4-tert-butyl-2-[(phenylamino)methyl]phenol]
E. coli PhoR (PhoR^E) [1]; 2 mM, 30 sec, compared to negative control
  inhibition at 2000 µM: > 40%
E. coli PhoR (PhoR^E) [1]
  IC50: > 2 mM
Staphylococcus aureus; [6]
  MIC: 125 µg/mL (≈ 490 µM)
Staphylococcus aureus; DSM20231, strain DSM 20231
  MBC: 500 µg/mL (≈ 1960 µM)
Staphylococcus aureus; [7]
  MIC: 500 µg/mL (≈ 1960 µM)
Staphylococcus aureus; MRSA clinical isolate 127/08, read-out: MIC S. aureus 127/08
  MIC: 250 µg/mL (≈ 979 µM)
Staphylococcus aureus; [8]
  MIC: 250 µg/mL (≈ 979 µM)
Staphylococcus aureus; [9]
  MIC: 250 µg/mL (≈ 979 µM)
Staphylococcus aureus; MRSA, MRSA clinical isolate S908, read-out: MIC S. aureus S908
  MIC: 250 µg/mL (≈ 979 µM)
Staphylococcus aureus; [10]
  MIC: 250 µg/mL (≈ 979 µM)
Staphylococcus aureus; [11]
  MIC: 250 µg/mL (≈ 979 µM)
Staphylococcus aureus; MRSA, summary over susceptible MRSA clinical isolates, read-out: MICs for MRSA strains
  MIC: 250 µg/mL (≈ 979 µM)
Staphylococcus aureus; strain DSM 20231
  MIC S. aureus DSM 20231: 500^¶ μg/ml
  bacteriostatic or bactericidal for S. aureus DSM 20231: bactericidal
[2]; DSM20044, strain DSM 20044
  MBC: 500 µg/mL (≈ 1960 µM)
[2]; [12]
  MIC: 500 µg/mL (≈ 1960 µM)
[2]; [13]
  MIC: 250 µg/mL (≈ 979 µM)
[2]; [14]
  MIC: 500 µg/mL (≈ 1960 µM)
[2]; [15]
  MIC: 500 µg/mL (≈ 1960 µM)
[2]; [16]
  MIC: > 500 µg/mL
[2]; [17]
  MIC: 500 µg/mL (≈ 1960 µM)
[2]; summary over strains, read-out: MICs for the S. epidermidis strains
  MIC: 250 to 500 µg/mL (≈ 979 to 1960 µM)
[2]; strain DSM 20044
  MIC S. epidermidis DSM 20044: 500^¶ μg/ml
  bacteriostatic or bactericidal for S. epidermidis DSM 20044: bactericidal
Streptococcus suis
  MIC: 125 µg/mL (≈ 490 µM)
Streptococcus pneumoniae
  MIC: > 500 µg/mL
Acinetobacter baumannii; [18]
  MIC: 500 µg/mL (≈ 1960 µM)
Acinetobacter baumannii; MDR clinical isolate NM35, read-out: MIC A. baumannii NM35
  MIC: 500 µg/mL (≈ 1960 µM)
Acinetobacter baumannii; MDR clinical isolate NM75, read-out: MIC A. baumannii NM75
  MIC: 500 µg/mL (≈ 1960 µM)
Acinetobacter baumannii; MDR clinical isolate NM109, read-out: MIC A. baumannii NM109
  MIC: 250 µg/mL (≈ 979 µM)
Acinetobacter baumannii; MDR clinical isolate NM124, read-out: MIC A. baumannii NM124
  MIC: 250 µg/mL (≈ 979 µM)
Acinetobacter baumannii; summary over strains, read-out: MICs for A. baumannii strains
  MIC: 250 to 500 µg/mL (≈ 979 to 1960 µM)
[3]; clinical isolate B5/5, read-out: MIC S. maltophilia B5/5
  MIC: 500 µg/mL (≈ 1960 µM)
[3]; clinical isolate B6/2, read-out: MIC S. maltophilia B6/2
  MIC: 500 µg/mL (≈ 1960 µM)
[3]; [19]
  MIC: 500 µg/mL (≈ 1960 µM)
[3]; summary over strains, read-out: MICs for S. maltophilia strains
  MIC: 250 to 500 µg/mL (≈ 979 to 1960 µM)
Klebsiella pneumoniae
  MIC: > 500 µg/mL
Klebsiella pneumoniae; strain ATCC 700603
  MIC K. pneumoniae ATCC700603: >500 µg/mL
Pseudomonas aeruginosa
  MIC: > 500 µg/mL
  MIC P. aeruginosa ATCC 27853: >500 µg/mL
Hemolysis assay
  HC50: > 500 µg/mL
E. coli PhoR (PhoR^E) [4]
  HK aggregation, PhoR^E: do not cause HK aggregation
S. aureus PhoR (PhoR^S)
  HK aggregation, PhoR^S: do not cause HK aggregation

## Nc1nc(-c2ccc(Br)cc2)cs1 [F1, 4-(4-bromophenyl)-1,3-thiazol-2-amine]
E. coli PhoR (PhoR^E) [1]
  IC50: ~2 mM and 2 mM
Staphylococcus aureus; [6]
  MIC: 125 µg/mL (≈ 490 µM)
Staphylococcus aureus; DSM20231, strain DSM 20231
  MBC: > 500 µg/mL
Staphylococcus aureus; [7]
  MIC: 25 µg/mL (≈ 98 µM)
Staphylococcus aureus; [8]
  MIC: 125 µg/mL (≈ 490 µM)
Staphylococcus aureus; [9]
  MIC: 125 µg/mL (≈ 490 µM)
Staphylococcus aureus; [10]
  MIC: 125 µg/mL (≈ 490 µM)
Staphylococcus aureus; [11]
  MIC: 125 µg/mL (≈ 490 µM)
Staphylococcus aureus; MRSA, summary over strains, read-out: MICs for the MRSA strains and S. aureus 25293
  MIC: 125 to 500 µg/mL (≈ 490 to 1960 µM)
[2]; DSM20044, strain DSM 20044
  MBC: 250 µg/mL (≈ 980 µM)
[2]; [12]
  MIC: 4 µg/mL (≈ 15.7 µM)
[2]; [13]
  MIC: 63 µg/mL (≈ 247 µM)
[2]; [14]
  MIC: > 500 µg/mL
[2]; [15]
  MIC: > 500 µg/mL
[2]; [16]
  MIC: > 500 µg/mL
[2]; [17]
  MIC: 250 µg/mL (≈ 980 µM)
[2]; summary over clinical isolates, read-out: MICs for S. epidermidis clinical isolates
  MIC: 63 µg/mL (≈ 247 µM)
Streptococcus suis
  MIC: > 500 µg/mL
Acinetobacter baumannii; [18]
  MIC: > 500 µg/mL
[3]; [19]
  MIC: > 500 µg/mL
Klebsiella pneumoniae
  MIC: > 500 µg/mL
Pseudomonas aeruginosa
  MIC: > 500 µg/mL
Hemolysis assay
  HC50: > 500 µg/mL
E. coli PhoR (PhoR^E) [4]
  HK aggregation, PhoR^E: do not cause HK aggregation
S. aureus PhoR (PhoR^S)
  HK aggregation, PhoR^S: do not cause HK aggregation
[5]
  solubility in kinase buffer: limited solubility

From article PMC4865847, “Putative histidine kinase inhibitors with antibacterial effect against multi-drug resistant clinical isolates identified by in vitro and in silico screens” (Scientific Reports, 2016)
